This is an account of results in patent US20230218657A1, “COMPOSITIONS, THEIR USES IN THERAPY AND METHODS THEREOF” (National University of Singapore, priority 2020, published 2023).

“Also recorded” adds a separate entry of the source.

Type in all cases: in vivo
Assay [1] concerns apoE-/- mice. The assay can be described thus: Footpad tissue edema / swelling observed macroscopically in apoE-/- mice. An excerpt: (§1) To evaluate the effect of cyclodextrin on secondary lymphedema, an animal model of lymphatic insufficiency that mimics human pathophysiology of lymphedema was used, e.g adipose tissue remodeling, lipid accumulation, inflammation and fibrosis. This mouse model can be apoE lipoprotein E deficient mice. […] It is believed that this lymphatic insufficiency leads to adipose tissue expansion and then loss and fibrosis as also observed in human secondary lymphedema. To confirm this, female apoE-/- mice were treated with 2 g/kg body of cyclodextrin […] subcutaneously or vehicle alone (saline) subcutaneously every alternative day for a total of 2, 4 or 8 doses. Mice were euthanized, tissue swelling was observed macroscopically and lymphatic transport was examined by following up the transport of FITC dextran from the front footpad to the draining lymph nodes. Skin tissues was also examined histologically for lipid content (Oil red O staining).
FIG. 1 illustrates images of footpads from female wild-type (WT) or apoE-/-mice after receiving subcutaneous injection of cyclodextrin (CD; 2 g/kg body weight) or saline (control, NT) every alternative day for a total of 4 doses and harvested when mice were 17 weeks old on high fat diet. Swelling of the footpad of the mice was observed macroscopically (arrow heads: swelling region).

The subject of assay [2] is apoE-/- mice. The assay can be described thus: CD68 immunofluorescence staining of back skin (inflammation, macrophage infiltration). As to conditions: 17 weeks old, particularly the 8 doses regime. On the procedure:
(§2) The formulation was assessed if it can reverses some tissue changes associated with lymphedema including fibrosis and inflammation.
CD68 is a pan-macrophage marker, perilipin was used to identify adipocytes and DAPI stains for the nucleus.

Assay [3] deals with apoE-/- mice. The assay can be described thus: Lymphatic transport of FITC dextran from footpad to draining lymph node.
Description: as §1
FIG. 3 plots the relative fluorescence in the lymph nodes of respective female WT or apoE-/- mice after receiving subcutaneous injection of cyclodextrin (CD; 2 g/kg body weight) or Saline (control, NT) every alternative day for a total of 4 doses. The mice were harvested when the mice were 17 weeks old on high fat diet. Lymphatic drainage was assessed by measuring the transport of fluorescent dextran from the footpad (site of injection) to the draining lymph node.
FIG. 4 plots the relative fluorescence in the lymph nodes of the respective mice under a different dosage regime.

Assay [4] has as its system apoE-/- mice. The experiment in a line: Oil red O staining of footpad skin for lipid accumulation. The settings on record: 2 g/kg subcutaneous, alternate days, 4 doses; female apoE-/- mice, 17 weeks old, high fat diet; vs saline.
Description: as §1
FIG. 2 illustrates microscopic images of female WT or apoE-/- mice after receiving subcutaneous injection of cyclodextrin (CD; 2 g/kg body weight) or saline (control, NT) every alternative day for a total of 4 doses and harvested when mice were 17 weeks old on high fat diet. Section of footpad skin were stained for neutral lipid with Oil red O (red staining) to identify lipid accumulation in the tissue.

Assay [5] has as its system apoE-/- mice. The experiment in a line: Total cholesterol in front footpad and plasma cholesterol. The text has this:
Cyclodextrin was administrated subcutaneously alternate days.

For assay [6], the system named is apoE-/- mice. The assay can be described thus: Masson's Trichrome staining of back skin (fibrosis, collagen deposition). The settings on record: 17 weeks old, particularly the 8 doses regime. The procedure:
as §2
Collagen was stained in blue, muscle and cytoplasm was stained in red and the nucleus was stained in black.

[7] abbreviates: 8 doses, apoE-/- mice at 42 weeks of age (greater severity).

cyclodextrin: the “tissue edema / footpad swelling” value in assay [1] (2 g/kg subcutaneous, alternate days, 4 doses, female apoE-/- mice, 17 weeks old, high fat diet, vs saline) was “improved significantly tissue edema in the footpad; also recorded: decreased footpad swelling”. For the same substance, the tissue swelling entry in assay [1] (setting [7]) was “not able to improve lymphatic function and ameliorate tissue changes such as tissue swelling”. Also, the reducing lymphedema entry in assay [1] (intradermal injection, animal model of lymphedema (summary statement)) is reported as “effective in reducing lymphedema”. In addition, the “inflammation (infiltration of macrophages in adipose tissue, CD68) in back skin” value in assay [2] was “reduces fibrosis (FIG. 7A) and inflammation; also recorded: the extent of macrophage accumulation and crown-like structures (white boxes) decreases”. The lymphatic function result in assay [3] (2 g/kg subcutaneous, alternate days, 2 doses, female apoE-/- mice, 17 weeks old) was “improved lymphatic function but in lesser extent compared to 4 doses; also recorded: sufficient to improve lymphatic function”; in assay [3] (2 g/kg subcutaneous, alternate days, 8 doses, female apoE-/- mice, 17 weeks old, compared to 4 doses), “did not further enhance lymphatic function; also recorded: did not improve further lymphatic function”; in assay [3] (setting [7]) it was “not able to improve lymphatic function”. The “lymphatic transport / lymphatic function” value in assay [3] (2 g/kg subcutaneous, alternate days, 4 doses, female apoE-/- mice, 17 weeks old) is given as “completely restored lymphatic transport; also recorded: restoring completely lymphatic function; also recorded: completely restored it”. Further, in assay [4], the “lipid accumulation in footpad skin (Oil red O staining)” value is “decreased lipid accumulation; also recorded: decreased accumulation of lipids”. In assay [5] (apoE-/- mice treated with cyclodextrin), the plasma cholesterol levels entry is listed as “does not affect plasma cholesterol levels”. Moreover, the “tissue cholesterol (total cholesterol in front footpad)” value in assay [5] (subcutaneous, alternate days, 4 or 8 doses, apoE-/- mice, 17 weeks old) is “reduces tissue cholesterol; also recorded: decreased total cholesterol levels in the front foot pad”. For the same substance, the “fibrosis (collagen deposition) in back skin” value in assay [6] is recorded as “reduces fibrosis”.
